Assays:
KRAS (G12C) = molecular target: T1, KRAS (G12C) (Homo sapiens, UniProt P01116, G12C); experiment: KRAS G12C Nucleotide Exchange Assay (fixed GTP concentration); format: biochemical; details: KRAS (G12C) labeled with BODIPY-GDP; fixed GTP concentration; 2 hours compound incubation; fluorescence readout; read-out: IC50
T1 construct: purchased BPS Bioscience 79859
Method: A KRAS (G12C) Nucleotide Exchange Assay kit was used to evaluate compound antagonistic binding. The assay kit (BPS Bioscience. Catalog #79859) utilizes KRAS (G12C) labeled with BODIPY-GDP to determine if compounds can affect the nucleotide exchange (GDP to GTP) in KRAS signaling, Compounds were typically characterized using both protocols: fixed GTP concentrations and fixed inhibitor concentrations.
All reagents were prepared following manufacturer's protocol. 5 μL BODIPY-GDP and 10 μL of KRAS buffer were added to each well. A 3-fold serial dilution of compound in 5% DMSO was prepared. Typically, compounds were tested in the range of 0 μM to 50 μM, but the range could be modified depending on the characterization needs. 5 μL of diluted compound was added to the wells and the plate was centrifuged briefly to ensure all components were mixed before incubation at ambient temperature. After incubation for 2 hours, 10 μM GTP and 25 mM EDTA were mixed at a 1:1 ratio and 5 μL was added to the wells. The plate was then incubated for 1 hour at ambient temperature. After incubation, fluorescence was measured at […].
Data was analyzed by plotting fluorescence vs GTP concentration for control wells and compound wells.

[1] = test system: human ERK1 dually phosphorylated at T202/Y204 and ERK2; experiment: Phosphorylated ERK1/ERK2 ELISA; format: cell-based; details: phosphorylated ERK in cell lysates after treatment with compounds; sandwich ELISA; cell line not stated
Method: An ERK phosphorylation ELISA kit was used to characterize compounds for KRAS-based cell activity. The sandwich ELISA (RnD Systems. Catalog #DYC1018B) measures human ERK1 that is dually phosphorylated at T202/Y204 and ERK2. Cell lysates from cells before and after treatment with compounds were prepared using kit manufacturer protocols.
All reagents were prepared following the kit's protocol. The wells of a 96-well microtiter plate were coated with 100 μL of 8.0 μg/mL of capture antibody in PBS. The plate was sealed and left to incubate overnight at ambient temperature. After incubation, the wells were washed with 400 μL of Wash Buffer for a total of 3 washes. Wells were then blocked by adding 300 μL of Block Buffer to each well and incubated at ambient temperature for 1-2 hours. After removal of the Block Buffer by aspirating and washing, 100 μL of standards and samples were added to the plate in duplicates and incubated for 2 hours at ambient temperature. The aspiration and wash steps were repeated to remove unbound standard and samples and 100 μL of 400 ng/mL detection antibody was applied to each well. After 2 hours at ambient temperature, detection antibody was removed by washing and 100 μL of Streptavidin-HRP was added to each well. Incubation of Streptavidin-HRP was at ambient temperature for 20 minutes, after which Streptavidin-HRP was removed by washing, 100 μL of Substrate Solution was added to each well and incubated for 20 minutes before 50 μL of Stop Solution was added to each well.
The optical density of each well was immediately analyzed at 450 nm with a wavelength correction at 540 nm. The standards were plotted by averaging the optical density for each replicate and fitted with a four-parameter logistic curve fit. Concentrations of phosphorylated ERK in cell lysate samples were determined by extrapolation from the standard curve and then adjusted for any dilution factors.

T1 sequence (P01116 1-188 isoform P01116-2 G12C): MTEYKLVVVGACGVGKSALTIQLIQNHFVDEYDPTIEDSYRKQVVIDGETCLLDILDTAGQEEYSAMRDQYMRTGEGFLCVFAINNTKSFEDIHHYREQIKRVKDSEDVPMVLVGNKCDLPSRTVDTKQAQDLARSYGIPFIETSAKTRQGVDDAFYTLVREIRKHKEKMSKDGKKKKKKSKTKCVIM

Which results are given for `C=CC(=O)N1CCN(c2nc(OC[C@@H]3CCCN3CCNC(=O)CN3CCN4CCN5CCN(CC3)CC(=O)[O][Lu]([O]C(=O)C4)[O]C(=O)C5)nc3c2CCN(c2cccc4cccc(Cl)c24)C3)C[C@@H]1CC#N` [Lu-CHL-002, N-[2-[(2S)-2-[[7-(8-chloro-1-naphthyl)-4-[(3S)-3-(cyanomethyl)-4-prop-2-enoyl-piperazin-1-yl]-6,8-dihydro-5H-pyrido[3,4-d]pyrimidin-2-yl]oxymethyl]pyrrolidin-1-yl]ethyl]-2-(3,16,19-trioxo-2,17,18-trioxa-5.8,11,14-tetraza-1λ3-lutetatricyclo[9.6.3,25,14]docosan-8-yl)acetamide]?
IC50 (KRAS (G12C)): 1 to 10 µM; IC50 [1]: 1 to 10 µM
